Assay [1] concerns the target T1, ITK (Homo sapiens, UniProt Q08881).
T1 sequence (Q08881 1-620): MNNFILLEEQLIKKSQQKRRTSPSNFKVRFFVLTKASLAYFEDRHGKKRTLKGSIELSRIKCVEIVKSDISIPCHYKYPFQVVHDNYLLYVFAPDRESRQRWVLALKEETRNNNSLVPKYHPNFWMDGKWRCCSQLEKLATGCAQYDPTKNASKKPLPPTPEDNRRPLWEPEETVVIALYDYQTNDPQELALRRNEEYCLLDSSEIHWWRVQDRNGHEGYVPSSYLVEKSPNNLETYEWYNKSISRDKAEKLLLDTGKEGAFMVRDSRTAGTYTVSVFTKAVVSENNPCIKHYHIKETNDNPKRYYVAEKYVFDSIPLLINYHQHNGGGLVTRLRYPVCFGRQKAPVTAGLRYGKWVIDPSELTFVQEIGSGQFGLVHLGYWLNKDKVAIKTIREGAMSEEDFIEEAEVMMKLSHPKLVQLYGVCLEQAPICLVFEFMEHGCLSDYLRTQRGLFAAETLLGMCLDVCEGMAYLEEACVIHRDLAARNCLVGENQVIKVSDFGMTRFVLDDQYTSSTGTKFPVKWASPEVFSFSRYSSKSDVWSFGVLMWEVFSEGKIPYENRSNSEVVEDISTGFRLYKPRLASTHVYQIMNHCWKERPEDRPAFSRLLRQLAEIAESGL
The assay is described as follows: biochemical. Particulars: read-out: % enzyme activity, 1 μM; Run 1, Run 2.

Assay [2] concerns the target FES/FPS (Homo sapiens, UniProt P07332). Particulars: 1 μM; Run 1, Run 2.
The target of assay [3] is JAK1 (Homo sapiens, UniProt P23458). The assay is described as follows: biochemical. The conditions noted are these: read-out: % enzyme activity, 1 μM; Run 1, Run 2.
The target in assay [4] is CAMK1a (Homo sapiens, UniProt Q14012). The assay is described as follows: biochemical. Particulars: read-out: % enzyme activity, 1 μM; Run 1, Run 2.
The subject of assay [5] is TNIK.
The target of assay [6] is MLK4 (Homo sapiens, UniProt Q5TCX8). The assay is described as follows: biochemical. The conditions noted are these: read-out: % enzyme activity, 1 μM; Run 1, Run 2.
In assay [7] the target is T2, TLK1 (Homo sapiens, UniProt Q9UKI8).
T2 sequence (Q9UKI8 1-766): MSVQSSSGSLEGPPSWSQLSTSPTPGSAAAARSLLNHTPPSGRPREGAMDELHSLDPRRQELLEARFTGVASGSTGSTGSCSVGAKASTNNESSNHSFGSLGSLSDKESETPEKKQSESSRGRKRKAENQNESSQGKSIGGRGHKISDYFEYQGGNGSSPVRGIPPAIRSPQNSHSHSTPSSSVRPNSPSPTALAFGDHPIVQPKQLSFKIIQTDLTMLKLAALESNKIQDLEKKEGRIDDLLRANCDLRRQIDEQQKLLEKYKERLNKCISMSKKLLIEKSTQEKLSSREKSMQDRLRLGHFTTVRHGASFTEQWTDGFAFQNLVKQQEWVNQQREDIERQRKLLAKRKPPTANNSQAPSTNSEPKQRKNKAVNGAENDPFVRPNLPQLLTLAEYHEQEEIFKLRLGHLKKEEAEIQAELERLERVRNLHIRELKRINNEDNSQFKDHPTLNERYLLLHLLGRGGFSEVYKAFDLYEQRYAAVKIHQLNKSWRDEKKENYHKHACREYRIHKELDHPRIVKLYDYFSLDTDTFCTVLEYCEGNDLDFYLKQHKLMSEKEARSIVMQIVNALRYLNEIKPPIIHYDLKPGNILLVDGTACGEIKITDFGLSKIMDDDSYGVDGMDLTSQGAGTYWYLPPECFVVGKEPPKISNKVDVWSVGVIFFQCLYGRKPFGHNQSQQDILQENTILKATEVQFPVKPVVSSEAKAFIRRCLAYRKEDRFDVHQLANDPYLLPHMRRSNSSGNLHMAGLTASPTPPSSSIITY
Particulars: 1 μM; Run 1, Run 2.

The target in assay [8] is T3, ALK3/BMPR1A (Homo sapiens, UniProt P36894).
T3 construct: purchased Reaction Biology Corporation
The assay is described as follows: 375-member kinase panel. It counts as biochemical. Particulars: Run 1, Run 2; for % enzyme activity: 1 μM; for remaining activity at 1 µM: read-out: % enzyme activity, 1 μM.

Assay [9] addresses AKT2 (Homo sapiens, UniProt P31751). Particulars: 1 μM; Run 1, Run 2.
In assay [10] the test system is hERG.
The target in assay [11] is CSK (Homo sapiens, UniProt P41240). The assay is described as follows: biochemical. The conditions noted are these: read-out: % enzyme activity, 1 μM; Run 1, Run 2.
Assay [12] deals with MEK2 (Homo sapiens, UniProt P36507). The conditions noted are these: 1 μM; Run 1, Run 2.
The target of assay [13] is ERK2/MAPK1 (Homo sapiens, UniProt P28482). The conditions noted are these: 1 μM; Run 1, Run 2.
The target of assay [14] is PEAK1 (Homo sapiens, UniProt Q9H792). The assay is described as follows: biochemical. The conditions noted are these: read-out: % enzyme activity, 1 μM; Run 1, Run 2.
In assay [15] the target is T4, MEKK2 (Homo sapiens, UniProt Q9Y2U5).
T4 sequence (Q9Y2U5 1-619): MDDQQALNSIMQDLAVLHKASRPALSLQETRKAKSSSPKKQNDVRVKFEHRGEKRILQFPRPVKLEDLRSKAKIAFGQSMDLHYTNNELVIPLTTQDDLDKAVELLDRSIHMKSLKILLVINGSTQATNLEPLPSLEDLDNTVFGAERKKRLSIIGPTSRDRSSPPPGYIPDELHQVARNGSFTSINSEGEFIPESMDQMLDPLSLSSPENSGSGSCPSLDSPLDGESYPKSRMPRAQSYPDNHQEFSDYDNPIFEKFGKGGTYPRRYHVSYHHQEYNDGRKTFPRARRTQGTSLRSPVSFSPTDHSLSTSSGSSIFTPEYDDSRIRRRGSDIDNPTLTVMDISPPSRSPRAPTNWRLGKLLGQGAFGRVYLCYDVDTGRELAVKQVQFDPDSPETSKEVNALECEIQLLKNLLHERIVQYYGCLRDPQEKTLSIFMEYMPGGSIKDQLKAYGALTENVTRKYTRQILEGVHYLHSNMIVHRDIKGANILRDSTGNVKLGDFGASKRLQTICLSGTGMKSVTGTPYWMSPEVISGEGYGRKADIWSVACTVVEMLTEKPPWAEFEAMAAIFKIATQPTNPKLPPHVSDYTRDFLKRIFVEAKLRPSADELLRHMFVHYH
The conditions noted are these: 1 μM; Run 1, Run 2.

The target of assay [16] is PKN3/PRK3 (Homo sapiens, UniProt Q6P5Z2). The conditions noted are these: 1 μM; Run 1, Run 2.

Here are results for two compounds from publication PMC8213057, “Targeting ALK2: An Open Science Approach to Developing Therapeutics for the Treatment of Diffuse Intrinsic Pontine Glioma” (Journal of Medicinal Chemistry, 2020).

SMILES strings stand for the structures. Where “and” joins values, the source holds several entries; their conditions need not be identical. Equal values may be shown once.

T3 sequence (P36894 24-532): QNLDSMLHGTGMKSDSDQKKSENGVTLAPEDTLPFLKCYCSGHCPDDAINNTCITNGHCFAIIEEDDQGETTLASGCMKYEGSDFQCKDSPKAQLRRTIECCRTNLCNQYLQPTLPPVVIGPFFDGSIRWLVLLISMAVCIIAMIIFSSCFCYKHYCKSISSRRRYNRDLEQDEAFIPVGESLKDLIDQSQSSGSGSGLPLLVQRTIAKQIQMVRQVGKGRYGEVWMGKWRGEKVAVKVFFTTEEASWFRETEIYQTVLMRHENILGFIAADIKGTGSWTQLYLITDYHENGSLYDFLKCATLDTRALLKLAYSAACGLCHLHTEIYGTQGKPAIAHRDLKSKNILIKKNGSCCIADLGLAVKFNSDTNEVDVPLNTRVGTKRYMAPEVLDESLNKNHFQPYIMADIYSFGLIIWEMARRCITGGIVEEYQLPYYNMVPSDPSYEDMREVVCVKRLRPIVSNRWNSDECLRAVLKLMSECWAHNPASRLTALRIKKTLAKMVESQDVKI
Sequence of JAK1 (P23458 whole entry): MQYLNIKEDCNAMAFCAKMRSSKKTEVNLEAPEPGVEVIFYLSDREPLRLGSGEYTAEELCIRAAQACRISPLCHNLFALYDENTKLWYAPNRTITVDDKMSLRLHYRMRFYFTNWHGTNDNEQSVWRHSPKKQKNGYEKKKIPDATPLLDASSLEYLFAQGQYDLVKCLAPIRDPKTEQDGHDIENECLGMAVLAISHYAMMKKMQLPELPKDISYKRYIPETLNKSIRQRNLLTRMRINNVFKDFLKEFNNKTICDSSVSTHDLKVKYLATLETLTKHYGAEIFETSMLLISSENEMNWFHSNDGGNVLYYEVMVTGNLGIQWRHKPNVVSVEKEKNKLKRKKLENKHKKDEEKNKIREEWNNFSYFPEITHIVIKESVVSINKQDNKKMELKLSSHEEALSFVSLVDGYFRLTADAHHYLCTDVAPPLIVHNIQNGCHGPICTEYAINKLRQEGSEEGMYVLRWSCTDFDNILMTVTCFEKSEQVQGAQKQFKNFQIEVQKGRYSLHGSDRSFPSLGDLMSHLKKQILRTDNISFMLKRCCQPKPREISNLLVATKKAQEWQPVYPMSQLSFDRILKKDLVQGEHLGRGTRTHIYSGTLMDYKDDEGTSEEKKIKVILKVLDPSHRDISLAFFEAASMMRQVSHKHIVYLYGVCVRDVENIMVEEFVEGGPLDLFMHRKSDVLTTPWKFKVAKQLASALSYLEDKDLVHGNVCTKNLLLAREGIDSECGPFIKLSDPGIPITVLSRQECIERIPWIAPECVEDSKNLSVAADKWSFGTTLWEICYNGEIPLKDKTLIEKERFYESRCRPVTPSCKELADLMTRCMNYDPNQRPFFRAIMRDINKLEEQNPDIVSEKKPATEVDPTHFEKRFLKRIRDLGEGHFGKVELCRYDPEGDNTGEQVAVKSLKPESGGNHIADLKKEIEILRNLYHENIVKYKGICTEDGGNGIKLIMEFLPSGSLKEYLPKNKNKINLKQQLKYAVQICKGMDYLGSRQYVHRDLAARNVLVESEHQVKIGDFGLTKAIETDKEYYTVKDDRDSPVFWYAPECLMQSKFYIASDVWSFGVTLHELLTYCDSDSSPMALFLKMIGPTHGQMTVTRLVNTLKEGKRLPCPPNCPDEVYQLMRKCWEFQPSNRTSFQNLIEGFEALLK
Sequence of CAMK1a (Q14012 whole entry): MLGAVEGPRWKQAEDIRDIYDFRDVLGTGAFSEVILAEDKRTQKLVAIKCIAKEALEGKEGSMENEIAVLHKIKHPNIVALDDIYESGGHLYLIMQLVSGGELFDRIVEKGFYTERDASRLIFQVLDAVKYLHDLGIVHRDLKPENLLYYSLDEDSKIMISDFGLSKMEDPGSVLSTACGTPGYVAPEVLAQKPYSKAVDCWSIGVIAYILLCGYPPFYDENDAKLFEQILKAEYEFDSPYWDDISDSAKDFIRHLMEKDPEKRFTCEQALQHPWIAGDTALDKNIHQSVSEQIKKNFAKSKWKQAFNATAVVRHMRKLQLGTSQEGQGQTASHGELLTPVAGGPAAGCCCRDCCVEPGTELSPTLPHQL
Sequence of MLK4 (Q5TCX8 whole entry): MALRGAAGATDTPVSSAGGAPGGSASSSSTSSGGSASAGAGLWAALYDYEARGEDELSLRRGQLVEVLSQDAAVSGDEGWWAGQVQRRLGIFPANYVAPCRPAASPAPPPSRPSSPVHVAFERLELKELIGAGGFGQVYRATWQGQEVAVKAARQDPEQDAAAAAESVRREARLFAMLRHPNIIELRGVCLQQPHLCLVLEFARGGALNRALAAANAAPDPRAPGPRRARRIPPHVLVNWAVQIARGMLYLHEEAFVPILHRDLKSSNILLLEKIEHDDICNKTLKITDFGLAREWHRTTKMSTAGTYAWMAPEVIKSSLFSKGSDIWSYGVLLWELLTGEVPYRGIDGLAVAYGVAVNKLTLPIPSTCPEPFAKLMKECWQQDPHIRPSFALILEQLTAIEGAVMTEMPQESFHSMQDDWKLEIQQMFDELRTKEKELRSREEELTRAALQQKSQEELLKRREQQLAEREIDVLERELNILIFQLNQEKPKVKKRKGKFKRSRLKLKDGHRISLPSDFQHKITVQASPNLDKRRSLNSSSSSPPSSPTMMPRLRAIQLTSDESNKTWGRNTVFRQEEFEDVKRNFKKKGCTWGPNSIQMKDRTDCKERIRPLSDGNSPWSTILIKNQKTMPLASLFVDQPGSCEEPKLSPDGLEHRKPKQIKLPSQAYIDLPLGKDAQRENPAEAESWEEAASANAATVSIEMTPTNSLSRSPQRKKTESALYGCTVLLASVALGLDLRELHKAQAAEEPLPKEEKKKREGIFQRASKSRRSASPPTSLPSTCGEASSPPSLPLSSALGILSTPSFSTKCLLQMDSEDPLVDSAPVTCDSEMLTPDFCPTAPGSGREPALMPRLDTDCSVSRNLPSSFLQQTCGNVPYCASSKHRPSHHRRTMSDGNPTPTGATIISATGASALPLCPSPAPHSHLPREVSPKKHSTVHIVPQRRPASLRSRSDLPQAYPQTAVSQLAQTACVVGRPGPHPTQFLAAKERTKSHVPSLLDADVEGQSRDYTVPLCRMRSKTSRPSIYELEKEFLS
Sequence of ERK2/MAPK1 (P28482 whole entry): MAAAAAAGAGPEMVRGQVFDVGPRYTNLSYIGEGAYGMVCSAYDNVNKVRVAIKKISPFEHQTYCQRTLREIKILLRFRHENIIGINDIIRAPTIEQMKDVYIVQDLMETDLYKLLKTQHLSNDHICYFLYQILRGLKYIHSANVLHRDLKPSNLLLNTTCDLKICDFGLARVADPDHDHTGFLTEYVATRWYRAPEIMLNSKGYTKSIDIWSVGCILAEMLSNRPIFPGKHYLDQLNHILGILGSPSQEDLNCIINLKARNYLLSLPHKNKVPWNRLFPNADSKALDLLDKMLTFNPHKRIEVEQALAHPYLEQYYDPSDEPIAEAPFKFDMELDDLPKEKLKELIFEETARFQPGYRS
Sequence of PKN3/PRK3 (Q6P5Z2 whole entry): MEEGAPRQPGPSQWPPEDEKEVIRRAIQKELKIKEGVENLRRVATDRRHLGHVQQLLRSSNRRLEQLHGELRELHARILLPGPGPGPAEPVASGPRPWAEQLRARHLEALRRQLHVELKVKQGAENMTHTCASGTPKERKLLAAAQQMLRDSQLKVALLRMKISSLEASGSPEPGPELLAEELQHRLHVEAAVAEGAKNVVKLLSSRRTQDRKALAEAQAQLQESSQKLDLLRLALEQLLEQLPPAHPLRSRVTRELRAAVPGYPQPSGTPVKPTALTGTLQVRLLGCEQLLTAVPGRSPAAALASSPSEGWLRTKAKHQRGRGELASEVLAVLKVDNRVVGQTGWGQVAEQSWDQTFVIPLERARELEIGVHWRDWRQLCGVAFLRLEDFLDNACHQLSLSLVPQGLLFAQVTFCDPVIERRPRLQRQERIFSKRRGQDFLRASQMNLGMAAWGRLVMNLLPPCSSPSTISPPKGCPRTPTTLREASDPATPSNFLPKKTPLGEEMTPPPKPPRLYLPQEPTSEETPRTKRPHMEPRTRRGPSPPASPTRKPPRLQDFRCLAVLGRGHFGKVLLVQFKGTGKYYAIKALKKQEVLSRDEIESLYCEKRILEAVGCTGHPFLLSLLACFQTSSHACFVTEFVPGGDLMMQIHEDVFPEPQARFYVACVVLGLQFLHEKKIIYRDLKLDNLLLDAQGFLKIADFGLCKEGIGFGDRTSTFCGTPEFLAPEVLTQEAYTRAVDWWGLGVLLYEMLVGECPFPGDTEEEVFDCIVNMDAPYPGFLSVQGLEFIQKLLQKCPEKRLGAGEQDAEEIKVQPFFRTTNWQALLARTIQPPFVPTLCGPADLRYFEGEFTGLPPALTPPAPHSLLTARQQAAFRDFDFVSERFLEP
Sequence of AKT2 (P31751 whole entry): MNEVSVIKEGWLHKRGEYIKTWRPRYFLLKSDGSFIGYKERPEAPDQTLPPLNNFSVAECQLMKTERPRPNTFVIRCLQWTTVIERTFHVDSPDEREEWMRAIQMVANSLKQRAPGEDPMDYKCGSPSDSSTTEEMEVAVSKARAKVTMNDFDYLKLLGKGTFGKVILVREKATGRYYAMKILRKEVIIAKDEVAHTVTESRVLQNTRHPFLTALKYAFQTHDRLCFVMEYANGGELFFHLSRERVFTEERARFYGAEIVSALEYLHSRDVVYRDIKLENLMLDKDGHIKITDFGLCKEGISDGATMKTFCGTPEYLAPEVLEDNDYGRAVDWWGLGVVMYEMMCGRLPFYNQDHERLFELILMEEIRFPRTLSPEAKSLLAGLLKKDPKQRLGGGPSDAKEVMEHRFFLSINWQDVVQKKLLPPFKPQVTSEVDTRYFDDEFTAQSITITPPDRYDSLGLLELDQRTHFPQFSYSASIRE

Regarding `COc1cc(-c2cncc(-c3ccc(N4CCN(C)CC4)cc3)c2C)cc(F)c1C(N)=O` [Compound 26a, 2-Fluoro-6-methoxy-4-(4-methyl-5-(4-(4-methylpiperazin-1-yl)phenyl)pyridin-3-yl)benzamide], the remaining activity at 1 µM in [1] is 106%; in assay [3], 102%; in assay [4], 94.9%; in assay [6], 95.3%; in assay [8], 38.4%; in assay [11], 99.5%. Further, the remaining activity at 1 µM in [14] worked out at 99.1%. The “% enzyme activity” value in [2] was determined as 99.20%; in [7], 107.91%; in assay [8] it was 40.21%; in assay [9] it was 91.70%; in [12] it was 85.87%; in assay [13], 91.58%. Moreover, the figures for the “% enzyme activity” value in [15] and in assay [16] were 95.51% and 93.55%, respectively. In [5], the % enzyme activity at 1 μM was -0.77% and -2.62%. For the same compound, the half-inhibitory concentration (IC50) in assay [10] was over 30 µM. The hERG inhibition in assay [10] is over 30 µM.

Turning to `COc1cc(-c2cncc(-c3ccc(N4C[C@@H](C)N(C)[C@@H](C)C4)cc3)c2C)cc(F)c1C(N)=O` [Compound 26c, 2-Fluoro-6-methoxy-4-(4-methyl-5-(4-((3R,5S)-3,4,5-trimethylpiperazin-1-yl)phenyl)pyridin-3-yl)benzamide], the remaining activity at 1 µM amounted to 102% in [1]; 101% in assay [3]; 97.5% in assay [4]; 96.2% in assay [6]; 50% in assay [8]; 104% in assay [11]. The remaining activity at 1 µM in assay [14] came to 96.6%. The “% enzyme activity” value in assay [2] is on record as 98.66%; in assay [7], 100.84%; in assay [8], 50.46%; in [9] it was 92.08%; in assay [12], 91.58%; in assay [13] it was 87.49%. Besides, the “% enzyme activity” value in [15] is given as 100.62%; in [16], 96.44%. In addition, the % enzyme activity at 1 μM in assay [5] was 4.85% and 3.92%. Moreover, the hERG inhibition in [10] amounted to 18.8 µM.

The IC50 is the concentration needed to halve the response being measured. A low value points to greater potency in that assay.
